Laboratory results as given in patent publication US11401254B2, “Substituted thiophenecarboxamides and analogues as antibacterials agents” (Bayer Aktiengesellschaft, priority 2018, dated 2022).

Columns and labels:
[1] = Log P by HPLC on reversed phase columns (EEC directive 79/831 Annex V.A8); assay type: physicochemical; conditions: for chromatographic logP: reversed phase HPLC columns
Method: In the above tables, measurement of Log P values was performed according to EEC directive 79/831 Annex V.A8 by HPLC (High Performance Liquid Chromatography) on reversed phase columns with the following methods: • ^[a]
If more than one Log P value is available within the same method, all the values are given and separated by “+”.
Calibration was done with straight-chain alkan2-ones (with 3 to 16 carbon atoms) with known Log P values (measurement of Log P values using retention times with linear interpolation between successive alkanones). Lambda-max-values were determined using UV-spectra from 200 nm to 400 nm and the peak values of the chromatographic signals.

[2] = tested on: Xanthomonas campestris pv. campestris; assay: Xanthomonas campestris pv. campestris in vitro cell test (bacteria growth in liquid culture); assay type: cell-based; conditions: 20 ppm of tested compound; 24 h of incubation
Method: Example A: Xanthomonas Campestris pv. Campestris In Vitro Cell Test
Culture medium: LB broth medium (Luria Broth Miller) Sigma
Inoculum: bacteria suspension
Compounds to be tested were solubilized in DMSO and the solution used to prepare the required range of concentrations. The final concentration of DMSO used in the assay was ≤1%.
Inoculum was prepared from a pre-culture of bacteria grown in liquid medium and diluted to the desired optical density (OD).
Compounds were evaluated for their ability to inhibit bacteria growth in liquid culture assay. The compounds were added in the desired concentrations to culture medium containing the bacteria suspension. After 24 h of incubation, the efficacy of compounds was determined by spectrometric measurement of bacteria growth. Inhibition was determined by comparing the absorbance values in wells containing the compounds with the absorbance in control wells without compounds.

[3] = tested on: Xanthomonas campestris pv. campestris; assay: In vivo preventive test on Xanthomonas campestris pv. campestris (black rot on cabbage); conditions: Example C comparative table; same conditions as described in Example B; concentration not given
Method: Example B: In Vivo Preventive Test on Xanthomonas campestris pv. Campestris (Black Rot on Cabbage)
The tested compounds were prepared by homogenization in a mixture of acetone/Dimethyl sulfoxide/Tween®, and then diluted with water to obtain the desired concentration.
The young plants of cabbage were treated by spraying the compound prepared as described above. Control plants were treated only with an aqueous solution of acetone/Dimethyl sulfoxide/Tween®.
After 72 hours, the plants were contaminated by spraying the leaves with an aqueous bacteria suspension of Xanthomonas campestris pv. campestris. The contaminated cabbage plants were incubated for 8 or 10 days at 27° C. at 95% relative humidity.
The test was evaluated 8 or 10 days after the inoculation. 0% means an efficacy which corresponds to that of the control plants while an efficacy of 100% means that no disease was observed.
Compounds CMP3, CMP4, CMP5 and CMP6 were tested in an in vivo preventive test on Xanthomonas campestris pv. campestris (black rot on cabbage) in the same conditions as described in Example B.

[4] = method [a]: LC-UV, acidic range, 0.1% formic acid in water and acetonitrile as eluent
[5] = value given in preparation example, method variant not stated

Row | Structure (SMILES) | chromatographic logP [1, 4] | chromatographic logP [1, 5] | direct activity (inhibition of bacteria growth) [2] | Efficacy (%) [3] | LogP [1, 4]
1 | Cc1c(C(=O)N[C@H](C(=O)O)C(C)C)sc(Br)c1Br (racemic) [I.07, N-[(4,5-dibromo-3-methyl-2-thienyl)carbonyl]-valine] | 2.92 | 2.92 | no direct activity |  | 
2 | CCOC(=O)C(NC(=O)c1sc(Br)c(Br)c1Br)C(C)C (centres unmarked) [CMP3, reference compound] |  |  |  | 33% | 
3 | CCOC(=O)CNC(=O)c1sc(Br)c(Br)c1Br [CMP4, reference compound] |  |  |  | 0% | 
4 | CCOC(=O)C1(NC(=O)c2sc(Br)c(Br)c2C)CC1 [I.01, ethyl 1-{[(4,5-dibromo-3-methyl-2-thienyl)carbonyl]amino}cyclopropanecarboxylate] | 3.19 | 3.22 | no direct activity |  | 
5 | CCOC(=O)CNC(=O)c1sc(Cl)c(Cl)c1C [I.03, ethyl N-[(4,5-dichloro-3-methyl-2-thienyl)carbonyl]glycinate] | 2.9 | 2.95 | no direct activity |  | 
6 | CCOC(=O)C(CC(C)C)NC(=O)c1sc(Br)c(Br)c1C (centres unmarked) [I.05] |  |  | no direct activity |  | 4.56^[a]
7 | CCOC(=O)[C@@H](NC(=O)c1sc(Br)c(Br)c1C)C(C)C [I.08] |  |  | no direct activity |  | 4.32^[a]
8 | Cc1c(C(=O)NCC(=O)O)sc(Br)c1Br [I.10] |  |  | no direct activity |  | 2.05^[a]
9 | COC(=O)[C@@H](NC(=O)c1sc(Br)c(Br)c1C)C(C)C [I.11] |  |  | no direct activity |  | 3.87^[a]
10 | C#CCOC(=O)C(NC(=O)c1sc(Br)c(Br)c1C)C(C)C (centres unmarked) [I.13] |  |  | no direct activity |  | 4.06^[a]
11 | Cc1c(C(=O)NC(C(=O)OCC(C)C)C(C)C)sc(Br)c1Br (centres unmarked) [I.14] |  |  | no direct activity |  | 5.22^[a]
12 | Cc1c(C(=O)NC(C(=O)OCC#N)C(C)C)sc(Br)c1Br (centres unmarked) [I.15] |  |  | no direct activity |  | 3.69^[a]
13 | Cc1c(C(=O)NC(C(=O)OC2CSC2)C(C)C)sc(Br)c1Br (centres unmarked) [I.17] |  |  | no direct activity |  | 4.67^[a]
14 | Cc1c(C(=O)NC(C(=O)OC2CS(=O)(=O)C2)C(C)C)sc(Br)c1Br (centres unmarked) [I.18] |  |  | no direct activity |  | 3.42^[a]
15 | Cc1c(C(=O)NC(C(=O)OC2CCOC2)C(C)C)sc(Br)c1Br (centres unmarked) [I.19] |  |  | no direct activity |  | 3.78^[a]
16 | Cc1c(C(=O)NC(C(=O)OC[Si](C)(C)C)C(C)C)sc(Br)c1Br (centres unmarked) [I.20] |  |  | no direct activity |  | 5.78^[a]
17 | CCOC(=O)C(C)NC(=O)c1sc(Br)c(Br)c1C (centres unmarked) [I.21] |  |  | no direct activity |  | 3.39^[a]
18 | CCOC(=O)C(Cc1ccc(O)cc1)NC(=O)c1sc(Br)c(Br)c1C (centres unmarked) [I.23] |  |  | no direct activity |  | 3.33^[a]
19 | CCOC(=O)[C@H](CCSC)NC(=O)c1sc(Cl)c(Cl)c1C [I.24] |  |  | no direct activity |  | 3.94^[a]
20 | CCOC(=O)[C@H](Cc1ccccc1)NC(=O)c1sc(Cl)c(Cl)c1C [I.26] |  |  | no direct activity |  | 4.46^[a]
21 | CCOC(=O)C(C)NC(=O)c1sc(Cl)c(Cl)c1C (centres unmarked) [I.27] |  |  | no direct activity |  | 3.31^[a]
22 | Cc1c(C(=O)NCC(=O)OC(C)(C)C)sc(Cl)c1Cl [I.28] |  |  | no direct activity |  | 3.77^[a]
23 | COC(=O)[C@@H](NC(=O)c1sc(Cl)c(Cl)c1C)C(C)C [I.29] |  |  | no direct activity |  | 3.79^[a]
24 | COC(=O)[C@H](CCSC)NC(=O)c1sc(Cl)c(Cl)c1C [I.30] |  |  | no direct activity |  | 3.55^[a]
25 | COC(=O)CNC(=O)c1sc(Cl)c(Cl)c1C [I.31] |  |  | no direct activity |  | 2.51^[a]

Row | Structure (SMILES) | chromatographic logP [1, 4] | chromatographic logP [1, 5] | direct activity (inhibition of bacteria growth) [2] | Efficacy (%) [3] | LogP [1, 4]
26 | CCOC(=O)[C@H](CC(C)C)NC(=O)c1sc(Cl)c(Cl)c1C [I.33] |  |  | no direct activity |  | 4.54^[a]
27 | Cc1c(C(=O)NCC(=O)OCc2ccccc2)sc(Cl)c1Cl [I.34] |  |  | no direct activity |  | 3.76^[a]
28 | COC(=O)C(CCSC)NC(=O)c1sc(Cl)c(Cl)c1C (centres unmarked) [I.35] |  |  | no direct activity |  | 3.55^[a]
29 | COC(=O)[C@@H](CCSC)NC(=O)c1sc(Cl)c(Cl)c1C [I.36] |  |  | no direct activity |  | 3.55^[a]
30 | CCOC(=O)C(CC(C)C)NC(=O)c1sc(Cl)c(Cl)c1C (centres unmarked) [I.37] |  |  | no direct activity |  | 4.51^[a]
31 | CCOC(=O)C(Cc1ccccc1)NC(=O)c1sc(Cl)c(Cl)c1C (centres unmarked) [I.38] |  |  | no direct activity |  | 4.46^[a]
32 | CCOC(=O)C(Cc1ccc(O)cc1)NC(=O)c1sc(Cl)c(Cl)c1C (centres unmarked) [I.39] |  |  | no direct activity |  | 3.29^[a]
33 | Cc1c(C(=O)NCC(=O)OC(C)C)sc(Cl)c1Cl [I.41] |  |  | no direct activity |  | 3.29^[a]
34 | CCOC(=O)[C@@H](C)NC(=O)c1sc(Cl)c(Cl)c1C [I.42] |  |  | no direct activity |  | 3.31^[a]
35 | CCOC(=O)C1(NC(=O)c2sc(Cl)c(Cl)c2C)CC1 [I.43] |  |  | no direct activity |  | 3.08^[a]
36 | CCOC(=O)[C@@H](Cc1ccccc1)NC(=O)c1sc(Cl)c(Cl)c1C [I.45] |  |  | no direct activity |  | 4.46^[a]
37 | COC(=O)C(NC(=O)c1sc(Cl)c(Cl)c1C)C(C)C (centres unmarked) [I.46] |  |  | no direct activity |  | 3.79^[a]
38 | CCOC(=O)C(CCSC)NC(=O)c1sc(Cl)c(Cl)c1C (centres unmarked) [I.47] |  |  | no direct activity |  | 3.94^[a]
39 | CCCOC(=O)CNC(=O)c1sc(Cl)c(Cl)c1C [I.48] |  |  | no direct activity |  | 3.35^[a]
40 | Cc1c(C(=O)NC(C(=O)OC(C)C)C(C)C)sc(Br)c1Br (centres unmarked) [I.49] |  |  | no direct activity |  | 4.77^[a]
41 | Cc1c(C(=O)NC2(C(=O)O)CC2)sc(Cl)c1Cl [I.51] |  |  | no direct activity |  | 2.26^[a]
42 | Cc1c(C(=O)NC(C(=O)OC2CCC2)C(C)C)sc(Br)c1Br (centres unmarked) [I.53] |  |  | no direct activity |  | 4.98^[a]
43 | CCCOC(=O)C(NC(=O)c1sc(Br)c(Br)c1C)C(C)C (centres unmarked) [I.54] |  |  | no direct activity |  | 4.77^[a]
44 | CCCCOC(=O)C(NC(=O)c1sc(Br)c(Br)c1C)C(C)C (centres unmarked) [I.55] |  |  | no direct activity |  | 5.25^[a]
45 | Cc1c(C(=O)NC(C(=O)OC2CC2)C(C)C)sc(Br)c1Br (centres unmarked) [I.56] |  |  | no direct activity |  | 4.37^[a]
46 | Cc1c(C(=O)NC(C(=O)OCc2ccccc2)C(C)C)sc(Br)c1Br (centres unmarked) [I.57] |  |  | no direct activity |  | 5.03^[a]
47 | C=CCOC(=O)C(NC(=O)c1sc(Br)c(Br)c1C)C(C)C (centres unmarked) [I.58] |  |  | no direct activity |  | 4.46^[a]
48 | Cc1c(C(=O)NC(C(=O)OCC(F)(F)F)C(C)C)sc(Br)c1Br (centres unmarked) [I.59] |  |  | no direct activity |  | 4.51^[a]
49 | Cc1c(C(=O)NC(C(=O)Oc2ccccc2)C(C)C)sc(Br)c1Br (centres unmarked) [I.60] |  |  | no direct activity |  | 4.85^[a]
50 | Cc1c(C(=O)NC(C(=O)OC(C)(C)C)C(C)C)sc(Br)c1Br (centres unmarked) [I.61] |  |  | no direct activity |  | 5.25^[a]
